# From ChEMBL document CHEMBL1201862, “PubChem BioAssay data set” (2004)
# Active and inactive are the calls of the source.
# Experiments:
# [1] = target: Disintegrin and metalloproteinase domain-containing protein 17 (Homo sapiens, UniProt P78536); assay: inhibition of ADAM17 substrate cleavage – biochemical, quenched FRET substrate, counter-screen for ADAM10 exosite inhibitor project, dose response (AID 743253)
# [2] = potency of ADAM10 substrate cleavage blockers – biochemical, QFRET, dose response (AID 743254);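 further: ADAM10 enzyme with the DM2 quenched FRET peptide as substrate; EDANS fluorescence gain as the protease cuts the substrate; inhibitor potency against ADAM10 proteolytic activity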
# [3] = IC50 of Artemis nuclease activity blockers – biochemical, fluorescence intensity, dose response (AID 720701); assay type: functional;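 further: Artemis endonuclease enzyme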
# Nonstructural protein 1 = Nonstructural protein 1 (Influenza A virus, UniProt Q194T2); assay type: functional, Influenza A virus (A/California/07/2009(H1N1))
# Streptococcus = assay: GAS UMAA2166 growth inhibition – luminescence, BacTiterGlo, counter-screen for streptokinase expression inhibitor project, dose response (AID 1915); assay type: functional, organism-based;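 further: potency for reduction of bacterial viability or growth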
# [4] = target: T1, Short transient receptor potential channel 4 (Mus musculus, UniProt Q9QUQ5); assay: block of DAMGO-driven TRPC4 calcium entry – cell-based, HEK293 TRPC4/mu-opioid, Fluo-4 calcium, dose response (AID 434942); assay type: functional;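 further: potency of inhibitors blocking the TRPC4 calcium response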
# T1 sequence (Q9QUQ5 whole entry): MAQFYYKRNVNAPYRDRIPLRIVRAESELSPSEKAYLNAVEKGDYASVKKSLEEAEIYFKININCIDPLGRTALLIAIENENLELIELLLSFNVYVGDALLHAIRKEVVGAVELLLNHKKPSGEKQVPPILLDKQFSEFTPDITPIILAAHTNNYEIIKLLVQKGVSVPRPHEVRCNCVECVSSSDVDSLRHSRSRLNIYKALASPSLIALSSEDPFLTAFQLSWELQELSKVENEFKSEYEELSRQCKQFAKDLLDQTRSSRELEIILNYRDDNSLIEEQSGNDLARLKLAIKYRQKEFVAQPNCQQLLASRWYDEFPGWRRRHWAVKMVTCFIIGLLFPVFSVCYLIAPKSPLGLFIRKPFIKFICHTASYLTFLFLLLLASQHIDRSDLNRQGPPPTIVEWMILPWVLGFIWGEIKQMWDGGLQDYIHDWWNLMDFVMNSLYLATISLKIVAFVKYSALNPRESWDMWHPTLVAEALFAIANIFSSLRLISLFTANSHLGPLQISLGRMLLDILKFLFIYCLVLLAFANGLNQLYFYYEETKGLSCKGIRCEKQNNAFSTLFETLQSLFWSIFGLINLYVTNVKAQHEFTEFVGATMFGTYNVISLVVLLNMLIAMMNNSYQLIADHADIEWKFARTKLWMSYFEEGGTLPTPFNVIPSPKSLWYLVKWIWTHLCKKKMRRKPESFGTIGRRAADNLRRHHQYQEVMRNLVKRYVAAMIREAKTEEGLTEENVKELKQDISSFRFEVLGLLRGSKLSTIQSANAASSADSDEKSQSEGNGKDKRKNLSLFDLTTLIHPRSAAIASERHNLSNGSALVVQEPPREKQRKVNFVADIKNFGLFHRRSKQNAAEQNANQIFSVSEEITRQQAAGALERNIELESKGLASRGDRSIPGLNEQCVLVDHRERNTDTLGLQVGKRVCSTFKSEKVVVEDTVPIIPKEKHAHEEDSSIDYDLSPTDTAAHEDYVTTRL
# INS1 = assay: INS-1E survival protection against cytokine death – cell-based, luminescence, retest, dose response (AID 449756); assay type: functional; details: Rattus norvegicus;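 further: cell death triggered by IL-1 beta plus TNF-alpha plus IFN-gamma mixture; protective hits raise ATP signal compared with cytokine alone wells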
# [5] = test system: Streptococcus sp. 'group A'; assay: Streptococcus pyogenes SK(-)GAS viability under kanamycin – luminescence, BacTiterGlo, confirmation, counter-screen for streptokinase expression inhibitor project, dose response (AID 1900); assay type: functional, organism-based
# Streptokinase A = target: T2, Streptokinase A (Streptococcus pyogenes serotype M1, UniProt P10520); assay: viability-normalized secreted streptokinase activity reduction – plasminogen activation absorbance, OD405, dose response (AID 1914); assay type: functional, Streptococcus pyogenes M1 GAS;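 further: secreted streptokinase activity via plasminogen activation per viability signal from cell pellet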
# T2 sequence (P10520 whole entry): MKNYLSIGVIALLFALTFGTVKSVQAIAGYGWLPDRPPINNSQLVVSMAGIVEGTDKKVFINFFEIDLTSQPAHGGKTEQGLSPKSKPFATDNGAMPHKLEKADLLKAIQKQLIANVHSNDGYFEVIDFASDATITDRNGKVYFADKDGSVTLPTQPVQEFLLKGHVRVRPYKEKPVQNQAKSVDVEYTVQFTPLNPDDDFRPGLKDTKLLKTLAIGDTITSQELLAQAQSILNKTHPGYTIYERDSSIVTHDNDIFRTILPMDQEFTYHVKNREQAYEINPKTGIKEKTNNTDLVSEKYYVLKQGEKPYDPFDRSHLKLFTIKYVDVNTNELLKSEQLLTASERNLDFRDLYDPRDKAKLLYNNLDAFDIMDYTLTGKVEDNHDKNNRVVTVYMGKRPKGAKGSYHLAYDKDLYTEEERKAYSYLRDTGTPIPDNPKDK
# [6] = reduction of Shn3 3'UTR-driven luciferase in osteoblasts – cell-based, Clone20 osteoblasts, firefly luciferase, cherry-picked, dose response (AID 624132); assay type: functional;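 further: firefly luciferase luminescence from reporter carrying the Shn3 3'UTR in osteoblasts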
# [7] = Shn3 3'UTR reporter signal decrease – cell-based, Clone20 osteoblasts, firefly luciferase, cherry-pick, set 2, Schnurri-3 inhibitor project, dose response (AID 720490); assay type: functional;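 further: actives lower the luminescence signal as inhibitors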
# [8] = target: Voltage-dependent T-type calcium channel subunit alpha-1H (Homo sapiens, UniProt O95180); assay type: functional;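 further: channel activity triggered by adding a high calcium stimulation buffer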
# [9] = IGROV1 cell killing – plate reader, dry powder samples, PAX8 inhibitor project, dose response (AID 743043); assay type: functional, cell-based; details: IGROV-1
# [10] = OVCAR-3 cell viability loss – plate reader, dry powder samples, PAX8 inhibitor project, dose response (AID 743044); assay type: functional, cell-based
# Paired box protein Pax-8 = Paired box protein Pax-8 (Homo sapiens, UniProt Q06710); assay: PAX8 transcriptional activity inhibition in RMG-I – RMG-I cells, luciferase, cherry-pick, dose response (AID 687027); assay type: functional, cell-based;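 further: luciferase reporter driven by Pax8 target thyroperoxidase promoter measured by SteadyGlo luminescence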
# [11] = A2780 cell killing – plate reader, dry powder samples, cytotoxicity control, dose response (AID 743046); assay type: functional, cell-based
# [12] = OVCAR8 cell viability loss – plate reader, dry powder samples, PAX8 project, dose response (AID 743197); assay type: functional, cell-based; details: OVCAR-8
# [13] = CMV-driven luciferase expression suppression in HEK293 – cell-based, luminescence, dry powder, counter-screen for Pax8 inhibitor project, dose response (AID 743020); assay type: functional
# [14] = Late stage counterscreen for inhibitors of Trypanosoma brucei methionyl tRNA synthetase (MetRS): Luminescence-based cell-based high throughput dose response assay to identify compounds that are cytotoxic to Jurkat human T lymphocyte cells.; assay type: functional
# Chain of Paired box protein Pax-8 (Q06710 whole entry): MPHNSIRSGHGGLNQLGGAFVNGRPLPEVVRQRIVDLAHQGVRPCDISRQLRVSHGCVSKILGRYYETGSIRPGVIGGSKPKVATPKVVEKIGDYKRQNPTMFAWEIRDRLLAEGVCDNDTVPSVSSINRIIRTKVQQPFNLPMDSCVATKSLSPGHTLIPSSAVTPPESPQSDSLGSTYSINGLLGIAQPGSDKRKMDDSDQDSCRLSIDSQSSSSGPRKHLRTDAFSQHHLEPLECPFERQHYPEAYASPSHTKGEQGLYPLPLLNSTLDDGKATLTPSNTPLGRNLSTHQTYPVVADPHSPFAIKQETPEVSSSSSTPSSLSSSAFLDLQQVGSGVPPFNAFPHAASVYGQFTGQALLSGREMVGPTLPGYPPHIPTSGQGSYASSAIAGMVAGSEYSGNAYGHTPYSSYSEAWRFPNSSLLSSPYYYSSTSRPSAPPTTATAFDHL
# Chain of Disintegrin and metalloproteinase domain-containing protein 17 (P78536 whole entry, the tested form may be a part): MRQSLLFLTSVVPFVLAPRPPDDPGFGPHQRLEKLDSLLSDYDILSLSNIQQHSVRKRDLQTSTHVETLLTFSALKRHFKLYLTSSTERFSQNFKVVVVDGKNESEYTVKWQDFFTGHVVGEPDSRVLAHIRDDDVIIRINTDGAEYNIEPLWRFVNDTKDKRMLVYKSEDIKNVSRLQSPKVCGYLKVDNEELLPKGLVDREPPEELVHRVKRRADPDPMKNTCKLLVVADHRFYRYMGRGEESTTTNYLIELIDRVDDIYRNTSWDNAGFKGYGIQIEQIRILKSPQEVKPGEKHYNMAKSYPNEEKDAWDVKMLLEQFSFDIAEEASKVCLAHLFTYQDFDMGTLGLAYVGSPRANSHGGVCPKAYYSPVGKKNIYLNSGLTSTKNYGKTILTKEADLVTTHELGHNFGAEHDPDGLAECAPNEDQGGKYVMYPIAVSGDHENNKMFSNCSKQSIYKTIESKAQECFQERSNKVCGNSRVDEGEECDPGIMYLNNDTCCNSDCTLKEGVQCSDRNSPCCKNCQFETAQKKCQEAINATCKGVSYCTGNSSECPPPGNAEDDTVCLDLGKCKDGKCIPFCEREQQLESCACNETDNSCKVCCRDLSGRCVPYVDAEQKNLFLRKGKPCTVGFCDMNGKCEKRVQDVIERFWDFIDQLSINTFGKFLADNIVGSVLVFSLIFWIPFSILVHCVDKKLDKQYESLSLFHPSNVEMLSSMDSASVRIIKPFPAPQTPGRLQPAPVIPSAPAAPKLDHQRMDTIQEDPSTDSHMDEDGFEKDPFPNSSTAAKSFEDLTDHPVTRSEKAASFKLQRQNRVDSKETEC
# Chain of Voltage-dependent T-type calcium channel subunit alpha-1H (O95180 whole entry): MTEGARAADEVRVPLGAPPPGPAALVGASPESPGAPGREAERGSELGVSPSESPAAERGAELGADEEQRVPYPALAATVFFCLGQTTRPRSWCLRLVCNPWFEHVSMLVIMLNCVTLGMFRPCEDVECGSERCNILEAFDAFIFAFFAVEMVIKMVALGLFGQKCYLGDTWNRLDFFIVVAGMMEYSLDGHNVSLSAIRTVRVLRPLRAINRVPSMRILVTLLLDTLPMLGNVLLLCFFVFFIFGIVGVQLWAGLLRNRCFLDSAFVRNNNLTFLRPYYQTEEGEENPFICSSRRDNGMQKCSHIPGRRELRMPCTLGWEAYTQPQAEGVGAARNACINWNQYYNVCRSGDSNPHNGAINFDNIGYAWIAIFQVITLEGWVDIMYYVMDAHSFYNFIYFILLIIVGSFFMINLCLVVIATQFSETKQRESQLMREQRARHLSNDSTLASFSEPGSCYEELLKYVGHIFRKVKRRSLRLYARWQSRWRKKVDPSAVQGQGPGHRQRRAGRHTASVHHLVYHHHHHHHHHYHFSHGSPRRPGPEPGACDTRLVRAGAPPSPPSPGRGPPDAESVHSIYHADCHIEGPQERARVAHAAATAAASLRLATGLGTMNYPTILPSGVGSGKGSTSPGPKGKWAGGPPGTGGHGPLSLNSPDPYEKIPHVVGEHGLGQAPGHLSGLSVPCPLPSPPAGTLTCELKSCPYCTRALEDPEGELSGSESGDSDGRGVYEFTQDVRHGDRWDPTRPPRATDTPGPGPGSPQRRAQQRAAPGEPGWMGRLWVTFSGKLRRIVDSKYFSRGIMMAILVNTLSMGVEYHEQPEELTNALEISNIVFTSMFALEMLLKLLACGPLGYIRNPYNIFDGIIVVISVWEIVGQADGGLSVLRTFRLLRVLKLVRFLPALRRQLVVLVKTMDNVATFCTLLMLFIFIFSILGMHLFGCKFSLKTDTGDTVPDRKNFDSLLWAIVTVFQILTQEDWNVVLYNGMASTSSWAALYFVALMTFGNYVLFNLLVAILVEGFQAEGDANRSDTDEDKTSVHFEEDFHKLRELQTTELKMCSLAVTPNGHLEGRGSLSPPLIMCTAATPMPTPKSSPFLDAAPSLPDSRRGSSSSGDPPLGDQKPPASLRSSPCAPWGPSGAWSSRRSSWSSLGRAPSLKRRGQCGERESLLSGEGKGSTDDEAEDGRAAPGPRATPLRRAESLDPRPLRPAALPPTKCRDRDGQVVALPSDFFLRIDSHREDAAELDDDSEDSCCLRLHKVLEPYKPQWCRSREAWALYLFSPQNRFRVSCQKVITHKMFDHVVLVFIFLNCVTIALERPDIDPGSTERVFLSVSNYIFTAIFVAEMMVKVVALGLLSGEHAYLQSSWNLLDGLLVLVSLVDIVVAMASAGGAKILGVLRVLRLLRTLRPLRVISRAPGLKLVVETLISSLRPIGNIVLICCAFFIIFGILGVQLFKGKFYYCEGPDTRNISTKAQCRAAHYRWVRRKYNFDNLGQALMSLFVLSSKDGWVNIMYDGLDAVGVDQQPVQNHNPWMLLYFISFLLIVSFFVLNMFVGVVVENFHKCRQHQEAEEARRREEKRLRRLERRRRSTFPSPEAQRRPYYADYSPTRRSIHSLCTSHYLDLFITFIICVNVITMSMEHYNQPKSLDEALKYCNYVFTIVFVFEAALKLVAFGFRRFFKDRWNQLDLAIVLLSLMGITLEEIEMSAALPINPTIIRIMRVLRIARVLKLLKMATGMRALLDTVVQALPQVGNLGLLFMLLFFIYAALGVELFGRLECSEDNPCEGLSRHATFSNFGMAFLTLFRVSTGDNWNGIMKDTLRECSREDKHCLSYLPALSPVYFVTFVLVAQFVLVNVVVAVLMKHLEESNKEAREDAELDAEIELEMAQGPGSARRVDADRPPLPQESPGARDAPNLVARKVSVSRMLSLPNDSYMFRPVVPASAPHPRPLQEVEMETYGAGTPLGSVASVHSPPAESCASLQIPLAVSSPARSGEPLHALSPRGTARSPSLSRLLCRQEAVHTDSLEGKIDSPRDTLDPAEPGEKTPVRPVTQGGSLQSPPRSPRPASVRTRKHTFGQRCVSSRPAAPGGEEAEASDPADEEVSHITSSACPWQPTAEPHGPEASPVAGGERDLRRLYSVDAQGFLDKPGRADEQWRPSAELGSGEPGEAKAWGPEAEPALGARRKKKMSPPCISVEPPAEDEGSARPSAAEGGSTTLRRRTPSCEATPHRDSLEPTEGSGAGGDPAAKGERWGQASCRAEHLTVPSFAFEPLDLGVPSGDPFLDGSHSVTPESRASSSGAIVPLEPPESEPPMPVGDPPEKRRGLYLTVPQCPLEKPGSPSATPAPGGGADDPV
# Chain of Nonstructural protein 1 (Q194T2 whole entry): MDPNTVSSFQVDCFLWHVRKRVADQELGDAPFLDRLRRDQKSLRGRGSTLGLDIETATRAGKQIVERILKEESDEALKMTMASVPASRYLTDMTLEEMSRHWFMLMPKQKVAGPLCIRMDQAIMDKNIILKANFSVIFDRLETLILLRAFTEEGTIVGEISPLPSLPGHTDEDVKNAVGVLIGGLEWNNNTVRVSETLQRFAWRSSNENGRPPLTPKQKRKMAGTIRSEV
structure (smiles),measurement,setting,value
CCN(CC)c1ccc(NC(=O)COC(=O)CSc2ccc(Br)cc2C)cc1,IC50,[1],> 69.5 µM (inactive)
same,IC50,[2],> 7.72 µM (active)
c1ccc(-c2nc(NCc3ccco3)c3ccccc3n2)nc1,IC50,[3],8.96 µM (active)
same,IC50,Nonstructural protein 1,14.5 µM (active)
same,EC50,Streptococcus,12.1 µM (active)
same,EC50,[4],0.335 µM (active)
same,AC50,INS1,3.41 µM (active)
same,EC50,[5],3.14 µM (active)
same,EC50,Streptokinase A,> 150 µM (not active)
Cc1cccc(-c2noc(CN(C(=O)C(c3ccccc3)c3ccccc3)C(C)C)n2)c1,AC50,[6],6.27 µM (active)
same,AC50,[7],12.3 µM (active)
same,EC50,[8],6.72 µM (active)
COc1ccc2c3c(n(C)c2c1)[C@H](CO)N(Cc1ccccc1)CC31CCN(S(=O)(=O)c2ccc(C)cc2)CC1,AC50,[9],51.1 µM (active)
same,AC50,[10],17.8 µM (active)
same,AC50,Paired box protein Pax-8,6.41 µM (active)
same,AC50,[11],17.4 µM (active)
same,AC50,[12],13.2 µM (active)
same,AC50,[13],14.3 µM (active)
CCO[C@@H]1OC(C(=O)NCc2nc3ccccc3[nH]2)=C[C@H](c2ccc(Br)cc2)[C@H]1CCCO,IC50,[14],45.4 µM (inactive)
